{"source": "paper PMC4633020", "about": "(Journal of medicinal chemistry, 2015)", "assay_in_all_cases": "MIC, additional E. faecium strains", "format_in_all_cases": "cell-based", "key": {"E. faecium ATCC BAA 2127": {"test_system": "E. faecium ATCC BAA 2127", "conditions": "Enterococcus faecium, BAA2127"}, "[1]": {"test_system": "E. faecium 119-39A (Van S)", "conditions": "Enterococcus faecium"}, "E. faecium C9": {"test_system": "E. faecium C9", "conditions": "Enterococcus faecium"}}}
{"smiles": "CN[C@H](CC(C)C)C(=O)N[C@H]1C(=O)N[C@@H](CC(N)=O)C(=O)N[C@H]2C(=O)N[C@H]3C(=O)N[C@H](C(=O)N[C@H](C(=O)O)c4cc(O)cc(O)c4-c4cc3ccc4O)[C@H](O)c3ccc(c(Cl)c3)Oc3cc2cc(c3O[C@@H]2O[C@H](CO)[C@@H](O)[C@H](O)[C@H]2O[C@H]2C[C@](C)(N)[C@H](O)[C@H](C)O2)Oc2ccc(cc2Cl)[C@H]1O", "note": "[vancomycin]", "values": [{"measurement": "MIC", "setting": "E. faecium ATCC BAA 2127", "value": 1, "unit": "µg/mL"}, {"measurement": "MIC", "setting": "[1]", "value": 0.5, "unit": "µg/mL"}, {"measurement": "MIC", "setting": "E. faecium C9", "value": 2, "unit": "µg/mL"}]}
